Assay results as given in patent US20050203063A1, “Proteasome pathway inhibitors and related methods” (priority 2003, published 2005).
pIC50: −log10 of the molar value.

How the values were obtained:
[1] = molecular target: T1, 26S proteasomes; assay: Deubiquitination of UbSic1 by epoxomicin-treated purified 26S proteasomes; assay type: biochemical, S. cerevisiae; settings: titration, epoxomicin-treated proteasomes
T1 construct: IC50, deubiquitination of UbSic1; other: titration, epoxomicin-treated proteasomes; other: 5 μM C92
Protocol: (§1) FIG. 2. […] (A) Degradation of UbSic1. Purified 26S proteasomes were preincubated in the presence or absence of test compounds. UbSic1 was then added, and degradation assayed as described (6). Py mock refers to the pyridine solvent in which C23 was dissolved which was marginally inhibitory, unlike the 50% DMSO vehicle used for other test compounds. (B) Deubiquitination of UbSic1. […] UbSic1 was then added, and deubiquitination was assayed as described (6). (C) Titration curve with varying concentrations of C92 to determine half-maximal inhibition of deubiquitination. (D) C92 inhibits binding of UbSic1 to 26S proteasomes. Purified 26S proteasomes immobilized on anti-Flag beads were incubated with UbSic1 in the presence or absence of C92 as described (6). Following binding, beads were washed and analyzed by immunoblotting with anti-Sic1 polyclonal serum. (E) Binding of UbSic1 to the polyUb binding proteins Rpn10 and Rad23 is inhibited by C92. Recombinant Gst-Rpn10 and Gst-Rad23 (1 μg each) were immobilized on glutathione sepharose beads and then incubated with UbSic1 in the presence or absence of C92. Following binding, beads were washed and analyzed by immunoblotting. (F) C92 interacts with multiUb chains. Equivalent amounts (5 μg) of purified Gst, Gst-fusion protein or multiUb chains were incubated with C92 or C1 before being loaded on a 5% native polyacryamide gel. Electrophoresis was performed as described (33). (G) C92 and C59 interact specifically with K48-linked Ub on native gels. Ub (16 μM), K48-linked diUb (8 μM), or tetraUb chains (8 μM) were preincubated with a two fold-molar excess (monoUb and diUb), or equivalent amounts (tetraUb) of test compounds before being resolved on native gels as in (G). Tetra K29Ub, K48Ub, and K63Ub refer to tetraubiquitin chains wherein the ubiquitins are linked via K29, K48, or K63.
FIG. 5. […] Assays were performed and evaluated as summarized in the legend to FIG. 2B. The metal chelating reagent phenanthroline is designated as “P”, and “Py” refers to the pyridine solvent that is used as the solvent for C23. (B) Titration curve for C59. (C) Inhibition of binding of ubiquitin conjugates to Gst-Rpn10 by C92 and C59, but not other compounds. The experiment was performed as described for FIG. 2E.
(§2) 26S proteasomes were purified from S. cerevisiae cells expressing a Flag-tagged proteasomal subunit (PRE1) essentially as described (28).
Reactions were processed as above.

[2] = molecular target: T2, 26S proteasomes (Saccharomyces cerevisiae, UniProt P38886+P43588); assay: 26S proteasome integrity on native gel (Coomassie Blue); assay type: biochemical; settings: concentrations that inhibit ubiquitin-dependent proteolysis
T2 construct: 26S proteasomes were purified from S. cerevisiae cells expressing a Flag-tagged proteasomal subunit (PRE1); made in house; host or cells: S. cerevisiae cells expressing Flag-tagged PRE1
Protocol: FIG. 6. […] (A) Purified 26S proteasomes were preincubated with test compounds before being resolved on a native gel. Following electrophoresis, the gel was stained with Coomassie Blue. […] Same as (A), except that following electrophoresis, the gel was incubated with fluorescent substrate to determine peptidase activity, which was visualized using a UV transilluminator (9). […] (C) Untreated 26S proteasomes were resolved on a native gel. Following electrophoresis, the gel was incubated with the peptidase substrate in the presence of ubistatin.
as §2

[3] = molecular target: T3, K29-linked ubiquitin chains (Homo sapiens, UniProt P0CG47); assay: Native gel mobility shift of ubiquitin chains; assay type: binding; settings: tetraUb, equivalent amount of compound
T3 construct: tetraubiquitin chains wherein the ubiquitins are linked via K29, K48, or K63
Protocol: as §1
(§3) Selective recognition of the multiubiquitin chain by the 26S proteasome constitutes the first step in UbSic1 degradation (9). Applicants therefore assayed the binding of UbSic1 to 26S proteasomes pre-treated with C92. […] Previous work by applicants has shown that multiubiquitin chain receptors Rad23 and Rpn10 serve a redundant role in sustaining UbSic1 degradation in vitro and in vivo (14). In the absence of the ubiquitin-binding activity of Rpn10, UbSic1 is not recruited, deubiquitinated, or degraded by purified 26S proteasomes. Thus, to further establish the mechanism by which C92 inhibited binding of UbSic1 conjugates to the proteasome, applicants tested whether C92 could interfere with binding of UbSic1 to recombinant Rpn10 and Rad23. […] To distinguish whether C92 inhibited proteolysis by binding to proteasome receptor proteins or to the Ub chain on Sic 1, applicants exploited the negative charge of C92 to determine whether compound binding induced a mobility shift of the target proteins on native gels. C92 was pre-incubated with recombinant Rpn10, Rad23, or a mixture of Ub chains containing 2-7 Ub molecules. […] Remarkably, the binding of C92 and C59 to ubiquitin chains was exquisitely linkage specific. Ubiquitin molecules can be linked to each other in vivo through different internal lysines, including K29, K48, and K63(19). The K48-linked chain is the principal targeting signal in proteolysis whereas K63-linked chains are implicated in enzyme regulation; no physiological function for K29-linked chains has yet been discovered (20).

[4] = molecular target: T4, K63-linked ubiquitin chains (Homo sapiens, UniProt P0CG47); assay: Native gel mobility shift of ubiquitin chains; assay type: binding; settings: tetraUb, equivalent amount of compound
T4 construct: tetraubiquitin chains wherein the ubiquitins are linked via K29, K48, or K63
Protocol: as §1, §3

[5] = molecular target: T5, K48-linked ubiquitin chains (Homo sapiens, UniProt P0CG47); assay: Native gel mobility shift of ubiquitin chains; assay type: binding; settings: for native gel mobility of K48-linked ubiquitin chains: diUb with two fold-molar excess, tetraUb with equivalent amount of compound
T5 construct: a mixture of Ub chains containing 2-7 Ub molecules
Protocol: as §1, §3

[6] = molecular target: T6, Gst-Rpn10 (Saccharomyces cerevisiae, UniProt P38886); assay: Binding of UbSic1 to Gst-Rpn10 on glutathione sepharose beads
T6 construct: made in house
T6 sequence (P38886 1-268): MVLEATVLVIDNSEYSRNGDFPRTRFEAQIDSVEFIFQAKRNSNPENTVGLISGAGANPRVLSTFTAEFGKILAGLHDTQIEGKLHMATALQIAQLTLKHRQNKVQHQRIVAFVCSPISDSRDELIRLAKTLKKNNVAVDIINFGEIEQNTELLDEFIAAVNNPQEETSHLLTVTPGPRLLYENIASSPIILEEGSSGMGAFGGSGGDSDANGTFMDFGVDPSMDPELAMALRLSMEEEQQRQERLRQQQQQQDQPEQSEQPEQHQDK
Protocol: as §1, with “(F) C92 interacts with multiUb chains. Equivalent amounts (5 μg) of purified Gst, Gst-fusion protein or multiUb chains were incubated with C92 or C1 before being loaded on a 5% native polyacryamide gel. Electrophoresis was performed as described (33). (G) C92 and C59 interact specifically with K48-linked Ub on native gels. Ub (16 μM), K48-linked diUb (8 μM), or tetraUb chains (8 μM) were preincubated with a two fold-molar excess (monoUb and diUb), or equivalent amounts (tetraUb) of test compounds before being resolved on native gels as in (G). Tetra K29Ub, K48Ub, and K63Ub refer to tetraubiquitin chains wherein the ubiquitins are linked via K29, K48, or K63.” left out
FIG. 5. […] Assays were performed and evaluated as summarized in the legend to FIG. 2B. […]
Recombinant Gst-Rpn10 and Gst-Rad23 were immobilized on glutathione sepharose beads. […] Aliquots were analyzed by immunoblotting.

[7] = molecular target: T6, Gst-Rpn10; assay: Native gel mobility shift of receptor protein; assay type: binding
Protocol: as §1, with “Electrophoresis was performed as described (33). (G) C92 and C59 interact specifically with K48-linked Ub on native gels. Ub (16 μM), K48-linked diUb (8 μM), or tetraUb chains (8 μM) were preincubated with a two fold-molar excess (monoUb and diUb), or equivalent amounts (tetraUb) of test compounds before being resolved on native gels as in (G). Tetra K29Ub, K48Ub, and K63Ub refer to tetraubiquitin chains wherein the ubiquitins are linked via K29, K48, or K63.” left out

T2 sequence (P43588 whole entry, one chain of several): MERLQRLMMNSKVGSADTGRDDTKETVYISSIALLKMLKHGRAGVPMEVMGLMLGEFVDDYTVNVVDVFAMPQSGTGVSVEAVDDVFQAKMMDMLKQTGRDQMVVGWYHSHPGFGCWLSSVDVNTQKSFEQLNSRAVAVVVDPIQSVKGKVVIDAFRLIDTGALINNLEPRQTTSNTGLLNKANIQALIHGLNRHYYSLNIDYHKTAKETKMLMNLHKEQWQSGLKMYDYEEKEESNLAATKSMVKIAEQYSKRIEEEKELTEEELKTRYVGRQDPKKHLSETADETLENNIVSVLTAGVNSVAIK

O=S(=O)(O)c1ccc2cc3c(cc2c1)NN(c1ccc(/C=C/c2ccc(N4Nc5cc6ccc(S(=O)(=O)O)cc6cc5N4)cc2S(=O)(=O)O)c(S(=O)(=O)O)c1)N3 [Compound 59]
pIC50 [1]: 6.00
effect on 26S proteasome integrity / assembly [2]: without affecting
native gel mobility of K29-linked chains [3]: little or no effect
native gel mobility of K63-linked chains [4]: little or no effect
native gel mobility of K48-linked ubiquitin chains [5]: efficiently shifted
inhibition of binding of UbSic1 to Rpn10 [6]: abrogated binding

O=C(Nc1ccc(/C=C/c2ccc(NC(=O)c3cc(S(=O)(=O)O)c4cccnc4c3O)cc2S(=O)(=O)O)c(S(=O)(=O)O)c1)c1cc(S(=O)(=O)O)c2cccnc2c1O [Compound 92]
pIC50 [1]: ~6.40
effect on 26S proteasome integrity / assembly [2]: without affecting
native gel mobility of K29-linked chains [3]: little or no effect
native gel mobility of K63-linked chains [4]: little or no effect
native gel mobility of K48-linked ubiquitin chains [5]: efficiently shifted
native gel mobility of multiUb chains ([5]; mixture of Ub chains containing 2-7 Ub molecules): bound Ub chains
inhibition of binding of UbSic1 to Rpn10 [6]: abolished binding
native gel mobility of Gst-Rpn10 [7]: not Gst-Rpn10 or Gst-Rad23, was altered
